Source: publication PMC9555642 (PLoS ONE, 2022)
pIC50: −log10 of the molar value.

Tests used:
COPD HBEC ALI cultures [1] = experiment: Mucociliary clearance (bead tracking), TNF challenge; format: cell-based, human; details: TNF 20 ng/ml, day ten, 3 COPD donors, p = 0.0026
Experimental: In the TNF (20 ng/ml) challenged cultures, the apical surfaces were washed with pre-warmed PBS the day before addition of 50 μL of CountBright Absolute Counting beads (Invitrogen, Carlsbad, CA, USA) diluted 1:10 000 in PBS with Mg^2+ and Ca^2+. Inserts were transferred to a 12-well glass bottom plate (Cellvis, Mountain View, USA) and monitored in a Zeiss LSM 880 (Carl Zeiss AG, Oberkochen, Germany) at 37°C. Three regions in each well of each condition in three COPD donors were filmed and analyzed. Beads were tracked in the ImageJ software with the Fiji plugin Tracking and the mean velocity of each bead was plotted.

[2] = Plasma protein binding, human blood plasma; format: in vitro ADME
Experimental: Plasma protein binding analysis was performed as reported previously using human blood plasma samples [52].

HDAC3 = biological target: T1, HDAC3 (Homo sapiens, UniProt O15379); experiment: HDAC enzymatic activity (Eurofins); format: biochemical; details: Class I; ACY-1083 mean of two separate measurements, Ricolinostat and Tubastatin A one measurement
T1 construct: purchased Eurofins Pharma Discovery Services 2083

HDAC5 = biological target: T2, HDAC5 (Homo sapiens, UniProt Q9UQL6); experiment: HDAC enzymatic activity (Eurofins); format: biochemical; details: Class IIA; ACY-1083 mean of two separate measurements, Ricolinostat and Tubastatin A one measurement
T2 construct: purchased Eurofins Pharma Discovery Services 2494

[3] = Spike test in ALI cell media (stability and binding to plastic and media components); format: in vitro ADME
Experimental: Compound concentration was then analysed after 18hrs incubation at 37 °C by LC-MSMS (Method DMPK&BAC 001–04).

hERG = biological target: T3, hERG (Homo sapiens, UniProt Q12809); experiment: Cardiovascular ion channel panel, SyncroPatch 384PE patch clamp; format: cell-based; details: CHO K1 cell line, room temperature, 6 point cumulative assay
T3 construct: expressed in transfected cells; host or cells: Chinese hamster ovary K1 cell line

HDAC11 = biological target: T4, HDAC11 (Homo sapiens, UniProt Q96DB2); experiment: HDAC enzymatic activity (Eurofins); format: biochemical; details: Class IV; ACY-1083 mean of two separate measurements, Ricolinostat and Tubastatin A one measurement
T4 construct: purchased Eurofins Pharma Discovery Services 2663
T4 sequence (Q96DB2 1-347): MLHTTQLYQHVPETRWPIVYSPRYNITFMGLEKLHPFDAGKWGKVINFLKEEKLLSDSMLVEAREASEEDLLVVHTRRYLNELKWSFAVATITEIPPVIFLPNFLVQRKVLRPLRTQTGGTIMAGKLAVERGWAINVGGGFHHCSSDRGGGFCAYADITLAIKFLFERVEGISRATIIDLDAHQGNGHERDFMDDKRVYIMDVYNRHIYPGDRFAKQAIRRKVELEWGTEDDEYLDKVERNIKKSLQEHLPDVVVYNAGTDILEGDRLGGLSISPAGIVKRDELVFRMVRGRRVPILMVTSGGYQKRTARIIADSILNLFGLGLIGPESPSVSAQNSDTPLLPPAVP

COPD HBEC ALI cultures [4] = experiment: Cigarette smoke extract (CSE) challenge in ALI, FITC-dextran permeability; format: cell-based, human; details: 10 μM pre-treatment 3 days, CSE 1, 3 and 6% for 48 hours, two COPD donors
Experimental: The paracellular permeability was determined by using fluorescein isothiocyanate labeled 4kD-dextran (Sigma-Aldrich, St. Louis, USA). 18 hours after addition of 0.2 mg FITC-dextran in 200 μL medium to the apical side of the ALI cultures, the fluorescence in the basolateral medium was measured using PHERAstar FSX (excitation 485 nm and emission 520 nm) (BMG LABTECH, Ortenberg, Germany). The time point was chosen for optimal window in the assays as well as practical reasons and has been kept consistent in between different stimulations throughout this work. Data was plotted as fold-change of 0.1% DMSO control.
Cigarette smoke extract (CSE) experiments were performed using CSE containing media. In short, smoke from five filterless Kentucky research cigarettes, 3R4F (Kentucky Tobacco Research and Development Center, Lexington, USA), was bubbled through 25 ml of PBS at a speed of five minutes per cigarette. The CSE was filtered through a 0.2 μm sterile filter and stored at -80°C until addition to the basolateral side of HBEC ALI cultures from two COPD donors. […] Permeability was measured after 48 hours.

[5] = test system: deacetylation of α-tubulin; design: method as in PMID 28267067; details: read-out: cell potency (IC50), inhibition of deacetylation of α-tubulin; cited from earlier work
[6] = test system: healthy HBEC at ALI cultures; experiment: Ciliary beat frequency; format: cell-based, human; details: TNF-challenged healthy HBEC
Experimental: For cilia beating frequency (CBF) and cell velocity measurements, donor cells of primary healthy HBECs were amplified on rat tail collagen I coated flasks and seeded on 12-mm-diameter Transwell inserts.
CBF was quantified for the differentiated healthy HBECs treated with vehicle, TNF, and TNF + ACY-1083. The plates containing the pseudostratified epithelia were incubated at 37 °C with 5% CO2 in the 3i Marianis/Yokogawa Spinning-Disk Confocal microscope (Leica Microsystems, Sugar land, USA) as reported in our previous publications. High-speed time-lapse videos were taken at 32X air at 100 Hz with a total of 250 frames using a scientific Hamamatsu C11440-42U30 CMOS camera (Bridgewater, USA). Five areas were imaged per insert. A Matlab (R2020a) script (validated against SAVA) (previously described in [58] was used to determine average CBF per video, to generate a heat map indicating CBF.

[7] = biological target: T5, dopamine active transporter (DAT) (Homo sapiens, UniProt Q01959); experiment: Secondary pharmacology panel (Eurofins); format: binding
T5 construct: purchased Eurofins Pharma Discovery Services
Experimental: Second pharmacology screening was performed at Eurofins Pharma Discovery Services in a panel of 190 in vitro radioligand binding and enzyme assays covering a diverse set of enzymes, receptors, ion channels, and transporters.

[8] = 10 μM spiked into cell media, 18 hrs

T3 sequence (Q12809 whole entry): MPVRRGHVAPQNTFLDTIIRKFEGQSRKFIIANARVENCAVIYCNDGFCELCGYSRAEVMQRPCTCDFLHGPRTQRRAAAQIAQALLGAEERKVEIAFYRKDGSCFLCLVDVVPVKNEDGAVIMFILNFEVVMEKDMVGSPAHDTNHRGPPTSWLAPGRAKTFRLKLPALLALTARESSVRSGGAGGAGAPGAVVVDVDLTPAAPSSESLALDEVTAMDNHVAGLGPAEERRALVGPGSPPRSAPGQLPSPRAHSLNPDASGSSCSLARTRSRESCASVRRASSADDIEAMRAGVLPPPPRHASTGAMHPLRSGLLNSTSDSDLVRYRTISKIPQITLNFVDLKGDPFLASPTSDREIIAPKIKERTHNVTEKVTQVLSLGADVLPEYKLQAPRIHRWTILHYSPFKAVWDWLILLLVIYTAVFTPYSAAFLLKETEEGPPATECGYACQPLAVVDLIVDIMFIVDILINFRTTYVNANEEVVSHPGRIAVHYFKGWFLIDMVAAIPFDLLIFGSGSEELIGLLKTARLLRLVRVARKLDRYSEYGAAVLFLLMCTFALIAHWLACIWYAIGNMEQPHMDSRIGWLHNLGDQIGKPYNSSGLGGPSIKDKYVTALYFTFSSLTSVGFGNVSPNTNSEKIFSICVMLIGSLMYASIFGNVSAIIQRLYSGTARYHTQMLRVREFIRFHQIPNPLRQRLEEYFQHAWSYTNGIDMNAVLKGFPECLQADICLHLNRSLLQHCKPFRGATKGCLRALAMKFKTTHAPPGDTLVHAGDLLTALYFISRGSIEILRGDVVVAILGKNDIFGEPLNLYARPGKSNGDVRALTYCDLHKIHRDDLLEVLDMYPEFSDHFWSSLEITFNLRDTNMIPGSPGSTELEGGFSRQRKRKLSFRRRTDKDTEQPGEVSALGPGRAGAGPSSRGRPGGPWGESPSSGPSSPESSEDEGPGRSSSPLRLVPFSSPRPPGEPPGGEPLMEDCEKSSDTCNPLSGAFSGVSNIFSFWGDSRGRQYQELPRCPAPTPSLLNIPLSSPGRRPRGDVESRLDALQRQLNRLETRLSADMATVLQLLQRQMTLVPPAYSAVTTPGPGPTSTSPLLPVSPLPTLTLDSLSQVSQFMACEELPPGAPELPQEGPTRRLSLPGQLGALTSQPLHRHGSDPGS
T5 sequence (Q01959 whole entry, species assumed): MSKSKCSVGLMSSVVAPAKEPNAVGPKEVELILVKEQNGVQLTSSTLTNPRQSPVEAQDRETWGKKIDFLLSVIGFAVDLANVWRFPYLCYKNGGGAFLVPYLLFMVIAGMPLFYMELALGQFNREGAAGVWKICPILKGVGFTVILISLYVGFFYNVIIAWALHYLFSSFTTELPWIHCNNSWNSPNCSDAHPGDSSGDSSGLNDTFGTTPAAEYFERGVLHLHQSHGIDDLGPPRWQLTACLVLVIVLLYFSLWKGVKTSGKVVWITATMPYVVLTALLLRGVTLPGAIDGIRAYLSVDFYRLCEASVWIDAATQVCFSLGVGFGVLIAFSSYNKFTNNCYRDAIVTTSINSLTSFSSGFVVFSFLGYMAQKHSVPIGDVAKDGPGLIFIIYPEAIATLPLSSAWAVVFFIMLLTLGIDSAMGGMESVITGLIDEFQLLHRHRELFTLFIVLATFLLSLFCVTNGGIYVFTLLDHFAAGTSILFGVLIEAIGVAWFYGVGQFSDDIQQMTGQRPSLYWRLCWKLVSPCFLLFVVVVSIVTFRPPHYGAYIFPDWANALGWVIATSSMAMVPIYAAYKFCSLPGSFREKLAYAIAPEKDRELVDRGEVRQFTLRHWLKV
T1 sequence (O15379 whole entry): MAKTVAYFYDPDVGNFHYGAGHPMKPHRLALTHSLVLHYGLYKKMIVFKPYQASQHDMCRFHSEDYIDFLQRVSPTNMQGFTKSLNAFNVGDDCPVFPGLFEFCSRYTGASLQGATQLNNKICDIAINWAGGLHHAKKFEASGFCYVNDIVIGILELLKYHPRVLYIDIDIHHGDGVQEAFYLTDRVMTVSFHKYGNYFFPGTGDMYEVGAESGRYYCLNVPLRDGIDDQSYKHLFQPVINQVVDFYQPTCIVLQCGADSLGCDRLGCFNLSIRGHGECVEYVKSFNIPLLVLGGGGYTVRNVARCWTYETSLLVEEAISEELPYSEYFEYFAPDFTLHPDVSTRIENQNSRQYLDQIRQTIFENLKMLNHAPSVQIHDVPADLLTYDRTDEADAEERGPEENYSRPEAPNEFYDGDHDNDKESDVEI
T1 sequence (Q9Y618 395-489 partner limits assumed): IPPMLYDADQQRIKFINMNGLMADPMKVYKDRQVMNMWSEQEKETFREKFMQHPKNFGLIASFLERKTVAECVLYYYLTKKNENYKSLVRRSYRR
T2 sequence (Q9UQL6 whole entry): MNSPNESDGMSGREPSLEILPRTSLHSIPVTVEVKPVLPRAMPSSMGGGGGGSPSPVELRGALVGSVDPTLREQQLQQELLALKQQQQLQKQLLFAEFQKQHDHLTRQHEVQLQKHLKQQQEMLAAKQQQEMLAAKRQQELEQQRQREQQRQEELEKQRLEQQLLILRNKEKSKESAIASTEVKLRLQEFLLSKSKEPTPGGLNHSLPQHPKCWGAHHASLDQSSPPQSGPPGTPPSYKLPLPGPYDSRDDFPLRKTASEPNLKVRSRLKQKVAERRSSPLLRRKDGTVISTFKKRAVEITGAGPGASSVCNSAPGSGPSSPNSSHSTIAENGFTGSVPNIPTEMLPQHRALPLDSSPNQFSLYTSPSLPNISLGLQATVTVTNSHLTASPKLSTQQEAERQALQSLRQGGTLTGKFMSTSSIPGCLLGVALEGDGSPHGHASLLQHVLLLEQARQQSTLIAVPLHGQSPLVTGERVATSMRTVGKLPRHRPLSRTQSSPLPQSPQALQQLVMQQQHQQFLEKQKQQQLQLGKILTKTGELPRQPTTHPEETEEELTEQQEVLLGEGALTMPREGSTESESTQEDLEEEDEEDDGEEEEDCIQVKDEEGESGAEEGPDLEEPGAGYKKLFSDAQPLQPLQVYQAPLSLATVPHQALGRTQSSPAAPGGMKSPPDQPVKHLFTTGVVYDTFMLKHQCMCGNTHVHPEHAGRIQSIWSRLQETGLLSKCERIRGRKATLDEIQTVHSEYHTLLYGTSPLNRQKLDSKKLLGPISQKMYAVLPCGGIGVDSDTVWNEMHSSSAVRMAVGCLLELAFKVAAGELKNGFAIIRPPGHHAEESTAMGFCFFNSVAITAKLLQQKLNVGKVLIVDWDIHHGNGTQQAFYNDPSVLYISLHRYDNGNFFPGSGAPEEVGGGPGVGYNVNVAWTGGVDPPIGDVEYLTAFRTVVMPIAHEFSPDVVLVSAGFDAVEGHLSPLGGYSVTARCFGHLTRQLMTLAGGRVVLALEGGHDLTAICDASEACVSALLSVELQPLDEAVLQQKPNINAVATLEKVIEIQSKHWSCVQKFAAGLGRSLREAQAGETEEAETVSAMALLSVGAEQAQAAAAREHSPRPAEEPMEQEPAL

- free fraction [2]: 23%
- stability in human plasma [2]: stable
- pIC50 (HDAC3): < 4.06
- pIC50 (HDAC5): 5.38
- drug concentration after 18 hrs ([3]; 10 μM spiked into ALI cell media in a test tube, 37 °C, LC-MSMS): ~4 µM
- compound lost in the system [3, 8]: 60%
- remaining after spike test [3, 8]: approximately 40%
- pIC50 (HDAC11): 4.74
- pIC50 [7]: 6.43
Substance: ACY-1083
- bead velocity (mucociliary clearance) (COPD HBEC ALI cultures [1]): significantly protected from reduction in speed
- activity on hERG (hERG): > 30 µM
- paracellular permeability after CSE challenge (COPD HBEC ALI cultures [4]): reduction in permeability at all concentrations
- pIC50 [5]: 7.00 to 7.52
- CBF [6]: no effect
